Reference: patent publication US12029748B2, “Synergistic composition for maintenance of healthy balance of microflora” (KIMBERLY-CLARK WORLDWIDE, INC., priority 2017, dated 2024)
Where a SMILES comes first, the peptide text is derived from it.

What was measured:
[1] = tested on: L. crispatus and E. coli; experiment: Therapeutic Effect Protocol: L. crispatus / E. coli co-culture, ratio after 36 hours; format: cell-based, Lactobacillus crispatus; E. coli; settings: for Therapeutic Efficacy Results (Lactobacillus/E. coli) 0.10%: nitrogen compound 0.10 wt/vol % with 1.0 wt/vol % α methyl-D glucoside (10:1); for Therapeutic Efficacy Results (Lactobacillus/E. coli) 0.10% / Therapeutic Efficacy Results (Lactobacillus/E. coli) 0.50% / Therapeutic Efficacy Results (Lactobacillus/E. coli) 1.00%: 36 hours anaerobic co-culture, 37° C.; for Therapeutic Efficacy Results (Lactobacillus/E. coli) 0.50%: nitrogen compound 0.50 wt/vol % with 1.0 wt/vol % α methyl-D glucoside (2:1); for Therapeutic Efficacy Results (Lactobacillus/E. coli) 1.00%: nitrogen compound 1.00 wt/vol % with 1.0 wt/vol % α methyl-D glucoside (1:1); for Therapeutic effect when ratio α methyl-D glucoside : nitrogen compound is at least about 2:1, but not at 1:1: ratio at least about 2:1, not 1:1; for Therapeutic effect at ratio 2:1 and 10:1, but not at 1:1: ratios 2:1 and 10:1, not 1:1
Description: As used herein the term “therapeutic effect” refers to the ability of the compositions and formulations of the present invention to stimulate the growth of Lactobacillus relative E. coli measured according to the Therapeutic Effect Protocol described below. Generally, therapeutic effect is expressed as a ratio of Lactobacillus to E. coli and is desirably greater than about 2, more preferably greater than about 20 and more desirably greater than about 100.
The data in Table 1 was tested according to the Therapeutic Effect Protocol as described further herein. The nitrogen compounds were tested for their therapeutic efficacy at three different concentrations when combined with α methyl-D glucoside (1% wt/vol %). The concentrations of the nitrogen containing compounds that were tested were 1% wt/vol %, 0.5% wt/vol %, and 0.1% wt/vol %.
Colonies of L. crispatus and E. coli were prepared as follows. A colony of L. crispatus was transferred to 7 ml de Man, Rogosa & Sharpe (MRS) broth and incubated anaerobically (using BD GasPak EZ anaerobe container system with indicator) at 37° C. without shaking for 18-20 hours. A colony of E. coli was transferred to 5 ml Tryptic Soy Broth (TSB) and incubated aerobically (shaking at 100 rpm) at 37° C. for 18-20 hours.
Colonies were then inoculated as follows. Bacterial cultures were gently vortexed and 1 mL of each culture was transferred to a corresponding 2.0 mL micro-centrifuge tube and then centrifuged for two minutes at 14,500 rpm. The cultural supernatant was removed and the cell pellet was re-suspended in 1 mL of 0.95% (wt/vol %) saline. […] For L. crispatus, the pellet was re-suspended in 1 mL of 0.95% saline to achieve ˜10^7-10^8 cfu/mL. For E. coli, the pellet was re-suspended in 1 mL of 0.95% saline to achieve ˜10^8-10^9 cfu/mL.
Media were prepared as follows.
(§1) All of the ingredients in Table 2 were combined and the pH was adjusted to 6.5. […] To evaluate the effect of various nitrogen containing therapeutic agents on the growth of bacteria, the LAPT-g media, prepared as described above, was supplemented with various nitrogen containing compound therapeutic agents to a final test concentration between 0.1 and 1.0%. As initial screening measures, solubility and initial pH of each composition were checked. If a specific composition was insoluble (as detected by visual indication of precipitates or turbidity), then no further therapeutic efficacy testing was undertaken on that composition. Additionally, if the initial pH of the composition was below 5.5 (“Low”) or was above 6.5 (“High”), then no further therapeutic efficacy testing was undertaken on that composition.
Five milliliters (5 mL) of each medium was transferred to a test tube in duplicates for subsequent inoculation. A master mixture of L. crispatus and E. coli, prepared as described above, was prepared in 1,000:1 ratio. Each (5 ml) test tube was inoculated with the master mixture to give 10^5-10^6 total CFU L. crispatus and 100-1,000 total CFU E. coli per tube.
To establish a negative control, one tube was vortexed and 100 μL was removed to determine the initial cell concentrations by serial dilutions and plating (2 plates per dilution). L. crispatus is selected on MRS agar plates incubated anaerobically at 37° C. for two days. E. coli is selected on TSA plates incubated aerobically at 37° C. for one day. The co-cultures were incubated in an anaerobic container with BD GasPaks at 37° C. for 36 hours.
The effect of the α methyl-D glucoside and the nitrogen containing compound therapeutic agents on the ratio of L. crispatus to E. coli was measured 36 hours after inoculation and a final pH of the test solutions was recorded. The co-culture tube was vortexed and 100 μL was removed to determine the final cell concentrations by serial dilutions and plating (2 plates per dilution). L. crispatus is selected on MRS agar plates incubated anaerobically at 37° C. for two days.

[2] = Initial pH screening of the composition; format: physicochemical; settings: for I pH (initial pH), 0.10%: nitrogen compound 0.10 wt/vol % with 1.0 wt/vol % α methyl-D glucoside in medium; for I pH (initial pH), 0.50%: nitrogen compound 0.50 wt/vol % with 1.0 wt/vol % α methyl-D glucoside in medium; for I pH (initial pH), 1.00%: nitrogen compound 1.00 wt/vol % with 1.0 wt/vol % α methyl-D glucoside in medium
Description: Each composition in Table 1 went through initial screening measures of solubility and initial pH (“I pH”). […] When a specific concentration of a nitrogen containing compound was insoluble, the initial and final pH (“F pH”) of the combined composition was not measured and accordingly are each marked as “NM.” Additionally, initial pH of the composition was checked as a screening measure. The initial pH was marked as either Low (“L”), High (“H”), or Pass (“P”). A Low initial pH corresponds to an initial pH being less than 5.5, a High initial pH corresponds to an initial pH being greater than 6.5, and a Pass initial pH corresponds to the pH being at or between 5.5-6.5. […] As part of the Therapeutic Effect Protocol, a final pH was also measured after the compositions that were tested against the Lactobacillus and E. coli.
as §1

| SMILES | Therapeutic Efficacy Results (Lactobacillus/E. coli) 0.10% [1] | Therapeutic Efficacy Results (Lactobacillus/E. coli) 0.50% [1] | Therapeutic Efficacy Results (Lactobacillus/E. coli) 1.00% [1] | Therapeutic effect when ratio α methyl-D glucoside : nitrogen compound is at least about 2:1, but not at 1:1 ([1]; with α methyl-D glucoside) | Therapeutic effect at ratio 2:1 and 10:1, but not at 1:1 ([1]; with α methyl-D glucoside) | I pH (initial pH), 0.10% [2] | I pH (initial pH), 0.50% [2] | I pH (initial pH), 1.00% [2] | Therapeutic effect (ratio of Lactobacillus to E. coli greater than 2) at each concentration tested ([1]; with α methyl-D glucoside, nitrogen compound 1 wt/vol %, 0.5 wt/vol % and 0.1 wt/vol %) | Therapeutic effect when ratio α methyl-D glucoside : nitrogen compound is less than 2:1 (1:1) ([1]; with α methyl-D glucoside, ratio 1:1) |
| --- | --- | --- | --- | --- | --- | --- | --- | --- | --- | --- |
| CSCC[C@H](NC(=O)CN)C(=O)O [Gly-Met] | 238 | >2343.75 | 0.81 | provided a therapeutic effect | provided a therapeutic effect | P (a Pass initial pH corresponds to the pH being at or between 5.5-6.5) | P (a Pass initial pH corresponds to the pH being at or between 5.5-6.5) | P (a Pass initial pH corresponds to the pH being at or between 5.5-6.5) |  |  |
| C[C@H](NC(=O)CN)C(=O)O [Glycyl-Alanine] (H-Gly-Ala-OH) | 0.803 | 220 | 1.49 | provided a therapeutic effect |  | P (a Pass initial pH corresponds to the pH being at or between 5.5-6.5) | P (a Pass initial pH corresponds to the pH being at or between 5.5-6.5) | P (a Pass initial pH corresponds to the pH being at or between 5.5-6.5) |  |  |
| C[C@H](N)C(=O)N[C@H](C(=O)O)[C@@H](C)O [H-Ala-Thr-OH] (H-Ala-Thr-OH) | 212 | >103 | 1.64 | provided a therapeutic effect | provided a therapeutic effect | P (a Pass initial pH corresponds to the pH being at or between 5.5-6.5) | P (a Pass initial pH corresponds to the pH being at or between 5.5-6.5) | P (a Pass initial pH corresponds to the pH being at or between 5.5-6.5) |  |  |
| NO [Hydroxylamine] | 0.20 |  |  |  |  | H (a High initial pH corresponds to an initial pH being greater than 6.5) | H (a High initial pH corresponds to an initial pH being greater than 6.5) | H (a High initial pH corresponds to an initial pH being greater than 6.5) |  |  |
| OC[C@H]1O[C@@H](n2cnc3c(O)ncnc32)[C@H](O)[C@@H]1O [Inosine] | 2.75E+04 | 226 | 0.45 | provided a therapeutic effect | provided a therapeutic effect | P (a Pass initial pH corresponds to the pH being at or between 5.5-6.5) | P (a Pass initial pH corresponds to the pH being at or between 5.5-6.5) | P (a Pass initial pH corresponds to the pH being at or between 5.5-6.5) |  |  |
| C[C@H](N)C(=O)O [L-Alanine] | 1.5 | 1.52 | 1.3 |  |  | P (a Pass initial pH corresponds to the pH being at or between 5.5-6.5) | P (a Pass initial pH corresponds to the pH being at or between 5.5-6.5) | P (a Pass initial pH corresponds to the pH being at or between 5.5-6.5) |  |  |
| N[C@@H](CS)C(=O)O [L-Cysteine] | >299 | 28.38 | 10.44 |  |  | P (a Pass initial pH corresponds to the pH being at or between 5.5-6.5) | P (a Pass initial pH corresponds to the pH being at or between 5.5-6.5) | P (a Pass initial pH corresponds to the pH being at or between 5.5-6.5) | provided a therapeutic effect | provided a therapeutic effect |
| NC(=O)CC[C@H](N)C(=O)O [L-Glutamine] | >161 | 1.28 | 0.53 | provided a therapeutic effect |  | P (a Pass initial pH corresponds to the pH being at or between 5.5-6.5) | P (a Pass initial pH corresponds to the pH being at or between 5.5-6.5) | P (a Pass initial pH corresponds to the pH being at or between 5.5-6.5) |  |  |
| N[C@@H](CCO)C(=O)O [L-Homoserine] | >750 | 0.66 | 0.33 | provided a therapeutic effect |  | P (a Pass initial pH corresponds to the pH being at or between 5.5-6.5) | P (a Pass initial pH corresponds to the pH being at or between 5.5-6.5) | P (a Pass initial pH corresponds to the pH being at or between 5.5-6.5) |  |  |
| NCCCC[C@H](N)C(=O)O [L-Lysine] | >141 | 1.93 | 0.42 | provided a therapeutic effect |  | P (a Pass initial pH corresponds to the pH being at or between 5.5-6.5) | P (a Pass initial pH corresponds to the pH being at or between 5.5-6.5) | P (a Pass initial pH corresponds to the pH being at or between 5.5-6.5) |  |  |
| CSCC[C@H](N)C(=O)O [L-Methionine] | >1.71E+05 | 0.78 | 0.75 | provided a therapeutic effect |  | P (a Pass initial pH corresponds to the pH being at or between 5.5-6.5) | P (a Pass initial pH corresponds to the pH being at or between 5.5-6.5) | P (a Pass initial pH corresponds to the pH being at or between 5.5-6.5) |  |  |
